Experimental findings from ChEMBL document CHEMBL1201862, “PubChem BioAssay data set” (2004) are described below.

Structures are written as SMILES.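 Results reflect a 48-hour exposure of cells in 96-well plates to compound at five concentrations. Abbreviation: GI50, concentration required for 50% inhibition of growth.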 Activity calls are given as the source filed them. Rule as the data show it: active = GI50 up to about 1.1 µM and inactive = higher. Some results are limits rather than exact numbers.

Some test systems named below: SF-295; SK-MEL-28; OVCAR-3; BT-549; ACHN; SK-OV-3; SW-620; HCT-116; SK-MEL-5; OVCAR-8; A498; HOP-62; NCI-H226; KM12; RPMI-8226; M14; 786-0; RXF 393; Malme-3M; HCC 2998.
What all share (assay): growth of human tumour cells (NCI), 48 h

In the case of `COc1cc(O)c2c(=O)c3cccc(C)c3[nH]c2c1`, the GI50 in the test on SF-295 is > 10 µM (inactive); in the test on SK-MEL-28, > 10 µM (inactive); in the test with OVCAR-3, 9.31 µM (inactive); in the test with BT-549, > 10 µM (inactive); in the test on ACHN, 7.41 µM (inactive); in the test on SK-OV-3 it was > 10 µM (inactive). In addition, the GI50 is > 10 µM (inactive) with SW-620; > 10 µM (inactive) with HCT-116; > 10 µM (inactive) in the test on SK-MEL-5; > 10 µM (inactive) with OVCAR-8; 9.33 µM (inactive) with A498; > 10 µM (inactive) in the test with HOP-62. Also, the GI50 with NCI-H226 is > 10 µM (inactive); in the test on KM12, 5.93 µM (inactive); in the test on RPMI-8226, > 10 µM (inactive); in the test with M14, > 10 µM (inactive); in the test on 786-0, > 10 µM (inactive); in the test on RXF 393, > 10 µM (inactive). In addition, the GI50 in the test with Malme-3M and in the test with HCC 2998 was > 10 µM (inactive) in each case.
`Cc1cccc2c(=O)c3c(O)cc4c(c3n(C)c12)C=CC(C)(C)O4`: the GI50 in the test on SF-295 was 25.1 µM (inactive); in the test on SK-MEL-28 it was > 100 µM (inactive); in the test with OVCAR-3, > 100 µM (inactive); in the test on BT-549, 23.1 µM (inactive); in the test on ACHN, > 100 µM (inactive); in the test with SK-OV-3 it was > 100 µM (inactive). The GI50 in the test on SW-620 is > 100 µM (inactive); in the test with HCT-116, 58.9 µM (inactive); with SK-MEL-5 it was 29.9 µM (inactive); in the test on OVCAR-8, > 100 µM (inactive); with A498 it was > 100 µM (inactive); in the test on HOP-62, > 100 µM (inactive). In addition, the GI50 in the test on NCI-H226 is 29.5 µM (inactive); with KM12, 29 µM (inactive); in the test on RPMI-8226, 9.02 µM (inactive); in the test on M14, 28.3 µM (inactive); with 786-0, 71.8 µM (inactive); in the test with RXF 393, 5.93 µM (inactive). In addition, the GI50 with Malme-3M and in the test with HCC 2998 was > 100 µM (inactive) throughout.
Consider `CC1CCN(CC(=O)N2c3ccccc3Sc3cc4ccccc4cc32)CC1`, for which the GI50 in the test on SF-295, with SK-MEL-28, in the test on OVCAR-3, in the test on BT-549, with ACHN and in the test on SK-OV-3 was > 100 µM (inactive) throughout. For the same compound, the GI50 in the test on SW-620 was > 100 µM (inactive); in the test with HCT-116, 49.7 µM (inactive); in the test with SK-MEL-5, > 100 µM (inactive); in the test with OVCAR-8, > 100 µM (inactive); with A498, > 100 µM (inactive); in the test with HOP-62, > 100 µM (inactive). Further, the GI50 in the test on NCI-H226 was > 100 µM (inactive); with KM12, 51.9 µM (inactive); in the test on RPMI-8226, > 100 µM (inactive); in the test with M14, > 100 µM (inactive); in the test with 786-0 it was > 100 µM (inactive); with RXF 393, > 100 µM (inactive). Also, the results for the GI50 with Malme-3M and in the test on HCC 2998 were > 100 µM (inactive) and 67.6 µM (inactive), respectively.
Regarding `C=C1C(=O)O[C@@H]2CC(CO)=C([C@@H](C)CCCO)[C@@H](OC(=O)/C(C)=C\C)[C@H]12`, the GI50 was 16.9 µM (inactive) in the test with SF-295; 12 µM (inactive) in the test with SK-MEL-28; 7.64 µM (inactive) with OVCAR-3; 14.6 µM (inactive) in the test on BT-549; 15.1 µM (inactive) with ACHN; 25.9 µM (inactive) with SK-OV-3. Moreover, the GI50 was 14.7 µM (inactive) in the test on SW-620; 8.07 µM (inactive) in the test with HCT-116; 13.9 µM (inactive) in the test on SK-MEL-5; 20.6 µM (inactive) with OVCAR-8; 27.8 µM (inactive) in the test on A498; 34.9 µM (inactive) with HOP-62. Also, the GI50 with NCI-H226 is 28.4 µM (inactive); in the test on KM12, 17.3 µM (inactive); in the test with RPMI-8226, 5.05 µM (inactive); in the test on M14, 23.5 µM (inactive); with 786-0 it was 14.8 µM (inactive); with RXF 393 it was 11.9 µM (inactive). The figures for the GI50 with Malme-3M and in the test on HCC 2998 were 13.3 µM (inactive) and 15.3 µM (inactive), respectively.
In the case of `c1ccc2c(c1)[C@@H]1O[C@@H]1[C@@]13O[C@@]21[C@H]1O[C@H]1c1ccccc13`, the GI50 in the test with SF-295 was 15.1 µM (inactive); with SK-MEL-28, 16.9 µM (inactive); in the test with OVCAR-3, 16.5 µM (inactive); in the test with BT-549, 16.2 µM (inactive); in the test with ACHN, 12.9 µM (inactive); in the test with SK-OV-3, 21.5 µM (inactive). The GI50 is 12.8 µM (inactive) in the test with SW-620; 12.1 µM (inactive) in the test on HCT-116; 12.9 µM (inactive) in the test with SK-MEL-5; 15.6 µM (inactive) in the test with OVCAR-8; 15.7 µM (inactive) in the test with A498; 15.5 µM (inactive) in the test on HOP-62. Moreover, the GI50 in the test on NCI-H226 was 15.3 µM (inactive); in the test with KM12 it was 12.9 µM (inactive); in the test on RPMI-8226 it was 9.16 µM (inactive); in the test with M14 it was 15.6 µM (inactive); with 786-0, 15.2 µM (inactive); in the test on RXF 393, 12.6 µM (inactive). The GI50 in the test on Malme-3M is 12.7 µM (inactive); with HCC 2998, 16.6 µM (inactive).
Consider `CCCCCCCCCC[C@@H](O)[C@H]1CC[C@H]([C@H]2CC[C@H]([C@H](O)CCCCCCCCCC[C@@H]3CC(CC(C)=O)C(=O)O3)O2)O1` (stereo not given in full), for which the GI50 is 1.94 µM (inactive) with SF-295; > 50 µM (inactive) in the test with SK-MEL-28; 15.1 µM (inactive) in the test on OVCAR-3; 46.2 µM (inactive) in the test on BT-549; > 28.5 µM (inactive) in the test on ACHN; 31.8 µM (inactive) in the test on SK-OV-3. Also, the GI50 with SW-620 is 26.2 µM (inactive); with HCT-116, 0.112 µM (active); with SK-MEL-5, 0.0929 µM (active); with OVCAR-8, 7.66 µM (inactive); in the test on A498, > 28.5 µM (inactive); with HOP-62, 46.5 µM (inactive). For the same compound, the GI50 with NCI-H226 is 23.8 µM (inactive); in the test on KM12, 15.8 µM (inactive); in the test on RPMI-8226 it was 0.231 µM (active); in the test on M14, 26.3 µM (inactive); with 786-0, 23.2 µM (inactive); with RXF 393 it was 20.7 µM (inactive). Besides, the GI50 with Malme-3M is 16 µM (inactive); in the test with HCC 2998 it was 41.3 µM (inactive).
As for `c1cc(C[S+]2CCCC2)sc1C[S+]1CCCC1`, the GI50 in the test with SF-295 was > 100 µM (inactive); in the test with SK-MEL-28, > 10 µM (inactive); in the test with OVCAR-3, > 100 µM (inactive); in the test on BT-549 it was > 100 µM (inactive); in the test with ACHN, > 100 µM (inactive); in the test with SK-OV-3, > 100 µM (inactive). Moreover, the GI50 with SW-620 is > 100 µM (inactive); in the test on HCT-116, > 100 µM (inactive); in the test on SK-MEL-5, > 100 µM (inactive); with OVCAR-8, > 100 µM (inactive); with A498 it was 39.2 µM (inactive); in the test on HOP-62, > 100 µM (inactive). In addition, the GI50 in the test on NCI-H226, in the test with KM12, in the test on RPMI-8226, with M14, with 786-0 and in the test on RXF 393 was > 100 µM (inactive) each time. Also, the GI50 with Malme-3M and with HCC 2998 was > 100 µM (inactive) each time.
As to `O=C(O)C(F)(F)C(F)(F)C(F)(F)C(F)(F)C(=O)O`, the GI50 in the test on SF-295, in the test on SK-MEL-28, in the test on OVCAR-3, in the test with BT-549, in the test with ACHN and in the test on SK-OV-3 was > 100 µM (inactive) each time. For the same compound, the GI50 with SW-620, in the test with HCT-116, in the test with SK-MEL-5, in the test with OVCAR-8, in the test with A498 and in the test with HOP-62 was > 100 µM (inactive) in each case. Further, the GI50 with NCI-H226, with KM12, with RPMI-8226, in the test with M14, in the test on 786-0 and with RXF 393 was > 100 µM (inactive) in each case. In addition, the GI50 in the test on Malme-3M and in the test with HCC 2998 was > 100 µM (inactive) throughout.
For the compound `O=C1c2ccccc2C(=O)c2c(NC(=O)C(Cl)CCl)cccc21` (stereo not given), the GI50 with SF-295 was 26.7 µM (inactive); with SK-MEL-28, 17.2 µM (inactive); in the test on OVCAR-3, 11 µM (inactive); with BT-549 it was 17.1 µM (inactive); with ACHN it was 13.8 µM (inactive); in the test with SK-OV-3, 19 µM (inactive). Further, the GI50 was 2.86 µM (inactive) in the test on SW-620; 10.9 µM (inactive) in the test with HCT-116; 9.66 µM (inactive) with SK-MEL-5; 5.56 µM (inactive) in the test with OVCAR-8; 19.2 µM (inactive) in the test on A498; 10.5 µM (inactive) in the test with HOP-62. Moreover, the GI50 in the test on NCI-H226 is 17.5 µM (inactive); with KM12, 2.58 µM (inactive); with RPMI-8226 it was 0.628 µM (active); with M14, 6.28 µM (inactive); in the test with 786-0, 2.87 µM (inactive); in the test with RXF 393, 6.64 µM (inactive). Further, the figures for the GI50 with Malme-3M and in the test on HCC 2998 were 18.7 µM (inactive) and 13.6 µM (inactive), respectively.
Consider `CNC(=S)N/N=C/c1ccc([N+](=O)[O-])s1`, for which the GI50 in the test on SF-295 is > 10 µM (inactive); in the test on SK-MEL-28, > 10 µM (inactive); in the test with OVCAR-3, 2.23 µM (inactive); in the test on BT-549, > 10 µM (inactive); in the test on ACHN, > 10 µM (inactive); in the test with SK-OV-3, > 10 µM (inactive). For the same compound, the GI50 was > 10 µM (inactive) in the test on SW-620; 5.48 µM (inactive) in the test with HCT-116; > 10 µM (inactive) in the test with SK-MEL-5; 7.26 µM (inactive) in the test with OVCAR-8; > 10 µM (inactive) in the test with A498; > 10 µM (inactive) in the test with HOP-62. Besides, the GI50 was > 10 µM (inactive) in the test with NCI-H226; 3.99 µM (inactive) in the test on KM12; > 10 µM (inactive) in the test with RPMI-8226; > 10 µM (inactive) in the test on M14; > 10 µM (inactive) in the test on 786-0; > 10 µM (inactive) in the test on RXF 393. Besides, the values for the GI50 in the test on Malme-3M and in the test on HCC 2998 were 7.53 µM (inactive) and 8.15 µM (inactive), respectively.
